Measurements from ChEMBL document CHEMBL1201862, “PubChem BioAssay data set” (2004).
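Protocol summary: plate cells (96-well), add compound at 5 concentrations, incubate 48 h, interpolate endpoints linearly. GI50: concentration for 50% inhibition of growth.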 The source made the active and inactive calls. Cut-off read from the data, not from the text of the source: active = GI50 up to about 1.1 µM and inactive = higher.

Tests used:
Assay in all cases: growth of human tumour cells (NCI), 48 h
SK-OV-3 = test system: SK-OV-3
HL-60 = test system: HL-60
MOLT-4 = test system: MOLT-4
A498 = test system: A498
BT-549 = test system: BT-549
OVCAR-8 = test system: OVCAR-8
OVCAR-5 = test system: OVCAR-5
SK-MEL-5 = test system: SK-MEL-5
SK-MEL-2 = test system: SK-MEL-2
NCI-H460 = test system: NCI-H460
SW-620 = test system: SW-620
MDA-MB-231 = test system: MDA-MB-231
UO-31 = test system: UO-31
HCT-116 = test system: HCT-116
MDA-MB-435 = test system: MDA-MB-435
MCF7 = test system: MCF7
SF-539 = test system: SF-539
COLO 205 = test system: COLO 205
SK-MEL-28 = test system: SK-MEL-28
HT-29 = test system: HT-29

Compound | GI50 (SK-OV-3) | GI50 (HL-60) | GI50 (MOLT-4) | GI50 (A498) | GI50 (BT-549) | GI50 (OVCAR-8) | GI50 (OVCAR-5) | GI50 (SK-MEL-5) | GI50 (SK-MEL-2) | GI50 (NCI-H460) | GI50 (SW-620) | GI50 (MDA-MB-231) | GI50 (UO-31) | GI50 (HCT-116) | GI50 (MDA-MB-435) | GI50 (MCF7) | GI50 (SF-539) | GI50 (COLO 205) | GI50 (SK-MEL-28) | GI50 (HT-29)
CC(C)Cn1cnc2c(Cl)nc3ccccc3c21 | > 100 µM (inactive) | 26.7 µM (inactive) | 34.3 µM (inactive) | 33.9 µM (inactive) | 51.5 µM (inactive) | 58.9 µM (inactive) | 54.7 µM (inactive) | 12.2 µM (inactive) | > 100 µM (inactive) | 54.2 µM (inactive) | 47.3 µM (inactive) | 41.5 µM (inactive) | 18.5 µM (inactive) | 34.4 µM (inactive) | 53.2 µM (inactive) | 47.9 µM (inactive) | 46.3 µM (inactive) | 33.7 µM (inactive) | > 100 µM (inactive) | 46 µM (inactive)
NC(=O)c1nnc2cc(F)ccc2c1N | 85.5 µM (inactive) | > 100 µM (inactive) | > 100 µM (inactive) | 91.6 µM (inactive) | 84.9 µM (inactive) | > 100 µM (inactive) | > 100 µM (inactive) | > 100 µM (inactive) | > 100 µM (inactive) | > 100 µM (inactive) | > 100 µM (inactive) | > 100 µM (inactive) | 67.3 µM (inactive) | > 100 µM (inactive) | > 100 µM (inactive) | > 100 µM (inactive) | > 100 µM (inactive) | > 100 µM (inactive) |  | > 100 µM (inactive)
CN(C)/C=N/c1c2ccccc2nc2ccccc12 | 5.64 µM (inactive) | 3.65 µM (inactive) | 2.59 µM (inactive) | 8 µM (inactive) | 3.06 µM (inactive) | 3.92 µM (inactive) | 6.52 µM (inactive) | 2.98 µM (inactive) | 2.69 µM (inactive) |  |  | 5.77 µM (inactive) | 5.86 µM (inactive) | 3.57 µM (inactive) | 4.21 µM (inactive) | 2.54 µM (inactive) | 2.78 µM (inactive) | 2.48 µM (inactive) | 1.99 µM (inactive) | 3.06 µM (inactive)
CC1=NN(c2ccccc2)C(=O)/C1=C1\SC(c2ccccc2)(c2ccccc2)c2ccccc21 | > 100 µM (inactive) | > 100 µM (inactive) | > 100 µM (inactive) | > 100 µM (inactive) | > 100 µM (inactive) | > 100 µM (inactive) | > 100 µM (inactive) | > 100 µM (inactive) | > 100 µM (inactive) | > 100 µM (inactive) | > 100 µM (inactive) | > 100 µM (inactive) | > 100 µM (inactive) | 50.4 µM (inactive) | > 100 µM (inactive) | > 100 µM (inactive) | > 100 µM (inactive) | > 100 µM (inactive) | > 100 µM (inactive) | 67.9 µM (inactive)
C=C1CC(O)C2C(=C)C(=O)OC2C2C(C)C(=O)CC12 (stereo unspecified) | 33 µM (inactive) | 3.01 µM (inactive) | 7.03 µM (inactive) | 29.4 µM (inactive) | 7.87 µM (inactive) | 21.3 µM (inactive) | 16.1 µM (inactive) | 20.7 µM (inactive) | 18.9 µM (inactive) | 24.5 µM (inactive) | 5.12 µM (inactive) | 20.4 µM (inactive) | 14.7 µM (inactive) | 10 µM (inactive) | 11.3 µM (inactive) | 9.4 µM (inactive) | 19.7 µM (inactive) | 7.33 µM (inactive) | 14.3 µM (inactive) | 18.7 µM (inactive)
Cc1c(C#N)c2nnn(-c3cccc(Cl)c3)c(=O)n2c1-c1ccccc1 | 3.08 µM (inactive) | 3.28 µM (inactive) |  | 2.36 µM (inactive) | 18.1 µM (inactive) | 5.31 µM (inactive) | 3.75 µM (inactive) | 3.84 µM (inactive) | 1.27 µM (inactive) | 3.15 µM (inactive) | 4.3 µM (inactive) | 1.57 µM (inactive) | 8.97 µM (inactive) | 2.03 µM (inactive) | 0.566 µM (active) | 4.02 µM (inactive) | 1.59 µM (inactive) | 0.849 µM (active) | 32.3 µM (inactive) | 1.28 µM (inactive)
C=CC[C@@]1(C)CCCCCCCCC[C@@](C)(CC=C)C1=O | 41.1 µM (inactive) | 20.7 µM (inactive) | 20.4 µM (inactive) | 17.1 µM (inactive) | 27.4 µM (inactive) | 21.5 µM (inactive) | > 100 µM (inactive) | 16 µM (inactive) | 17.8 µM (inactive) | 24.4 µM (inactive) | 24.6 µM (inactive) | 28.8 µM (inactive) | 53.6 µM (inactive) | 32.9 µM (inactive) | 46.9 µM (inactive) | 38.8 µM (inactive) | 41.1 µM (inactive) | 19.6 µM (inactive) | 34.1 µM (inactive) | 18.7 µM (inactive)
